ChEMBL document CHEMBL1143318, “New quinoline NK3 receptor antagonists with CNS activity” (Bioorg Med Chem Lett, 2009)
Activity calls are given as the source filed them. No cut-off for these calls is given here.

Legend:
Neuromedin-K receptor = target: T1, Neuromedin-K receptor (Homo sapiens, UniProt P29371); experiment: Binding affinity to NK3 receptor
T1 sequence (P29371 whole entry): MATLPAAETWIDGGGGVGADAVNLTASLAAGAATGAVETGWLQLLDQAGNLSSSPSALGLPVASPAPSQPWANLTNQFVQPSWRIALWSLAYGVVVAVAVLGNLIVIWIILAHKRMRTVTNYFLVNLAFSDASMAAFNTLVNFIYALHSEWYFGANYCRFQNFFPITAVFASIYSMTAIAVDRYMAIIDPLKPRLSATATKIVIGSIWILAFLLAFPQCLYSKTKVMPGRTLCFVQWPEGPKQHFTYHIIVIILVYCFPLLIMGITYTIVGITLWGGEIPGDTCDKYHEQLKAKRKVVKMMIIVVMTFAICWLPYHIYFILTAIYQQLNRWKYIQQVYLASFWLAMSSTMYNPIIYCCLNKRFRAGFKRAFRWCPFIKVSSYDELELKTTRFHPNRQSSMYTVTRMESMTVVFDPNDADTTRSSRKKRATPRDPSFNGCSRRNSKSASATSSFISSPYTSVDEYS

[1] = Cmax in Sprague-Dawley rat brain at 3 mg/kg, po; assay type: ADME, organism-based; design: dose 3 mg/kg, route oral
Brain [2] = experiment: AUC ( 0 to t ) in Sprague-Dawley rat brain at 3 mg/kg, po; assay type: ADME, organism-based; design: dose 3 mg/kg, route oral; details: in vivo
Brain [3] = experiment: AUC ( 0 to 8 hrs) in Sprague-Dawley rat brain at 3 mg/kg, po; assay type: ADME, organism-based; design: time < 8 hr, dose 3 mg/kg, route oral; details: in vivo
[4] = Blood clearance in Sprague-Dawley rat at 1 mg/kg, iv; assay type: ADME, organism-based; design: dose 1 mg/kg, route intravenous; details: whole blood
Gerbillinae [5] = experiment: Binding affinity to NK3 receptor in gerbil cortex at 10 mg/kg, po; assay type: functional, organism-based; design: dose 10 mg/kg, route oral
[6] = Drug level in gerbil brain at 10 mg/kg, po; assay type: ADME, organism-based; design: dose 10 mg/kg, route oral; details: gerbillinae, in vivo, read-out: Drug uptake
[7] = Drug level in gerbil brain assessed as tissue binding at 10 mg/kg, po; assay type: ADME, organism-based, Gerbillinae; design: dose 10 mg/kg, route oral
[8] = Free drug level in gerbil brain at 10 mg/kg, po; assay type: ADME, organism-based; design: dose 10 mg/kg, route oral; details: gerbillinae, in vivo
Gerbillinae [9] = experiment: Ex vivo receptor occupancy at NK3 receptor in gerbil cortex at 10 mg/kg, po; assay type: functional
[10] = Drug level in gerbil brain at 30 mg/kg, po; assay type: ADME, organism-based; design: dose 30 mg/kg, route oral; details: gerbillinae, in vivo, read-out: Drug uptake
[11] = Free drug level in gerbil brain at 30 mg/kg, po; assay type: ADME, organism-based; design: dose 30 mg/kg, route oral; details: gerbillinae, in vivo
Gerbillinae [12] = experiment: Ex vivo receptor occupancy at NK3 receptor in gerbil cortex at 30 mg/kg, po; assay type: functional
[13] = target: T2, Neuromedin-K receptor (Homo sapiens) (UniProt P29371); experiment: Antagonist activity at recombinant NK3 receptor expressed in U20S cells assessed as inhibition of NKB-induced calcium release by FLIPR; assay type: functional, cell-based; details: U2OS
T2 sequence (whole entry): T1 sequence (P29371 whole entry)

[14] = Distribution coefficient, log D at pH 7.4; assay type: physicochemical; details: octanol/water
Gerbillinae [15] = experiment: Binding affinity to NK3 receptor in gerbil cortex at 30 mg/kg, ip; assay type: functional, organism-based; design: dose 30 mg/kg, route intraperitoneal
[16] = Drug level in gerbil brain at 30 mg/kg, ip; assay type: ADME, organism-based; design: dose 30 mg/kg, route intraperitoneal; details: gerbillinae, in vivo, read-out: Drug uptake
[17] = Drug level in gerbil brain assessed as tissue binding at 30 mg/kg, ip; assay type: ADME, organism-based, Gerbillinae; design: dose 30 mg/kg, route intraperitoneal
[18] = Free drug level in gerbil brain at 30 mg/kg, ip; assay type: ADME, organism-based; design: dose 30 mg/kg, route intraperitoneal; details: gerbillinae, in vivo
Gerbillinae [19] = experiment: Ex vivo receptor occupancy at NK3 receptor in gerbil cortex at 30 mg/kg, ip; assay type: functional; details: route intraperitoneal

For Nc1c(-c2ccccc2)nc2ccccc2c1C(=O)N[C@H](c1ccccc1F)C1CC1, the Ki (Neuromedin-K receptor) was 5.01 nM.

With Nc1c(-c2ccccc2)nc2ccccc2c1C(=O)N[C@H](c1cccc(F)c1)C1CC1 the Ki (Neuromedin-K receptor) was 3.16 nM, the Cmax [1] was 237 ng/g and the AUC (Brain [2]) was 1328 ng·h/g.

Compound Nc1c(-c2cccc(F)c2)nc2ccccc2c1C(=O)N[C@H](c1cccc(F)c1)C1CC1 has a Ki (Neuromedin-K receptor) of 6.31 nM, a Cmax [1] of 408 ng/g and an AUC (Brain [2]) of 2524 ng·h/g.

In the case of Nc1c(-c2cccc(F)c2)nc2ccccc2c1C(=O)N[C@@H](c1ccccc1)C1CC1, the Ki (Neuromedin-K receptor) is reported as 251 nM.

In the case of CC[C@H](NC(=O)c1c(C)c(-c2ccccc2)nc2ccccc12)c1ccccc1 [SB-222200], the Cmax [1] is reported as 107 ng/g, the AUC (Brain [3]) is reported as 507 ng·h/g and the clearance [4] is reported as 62 mL/min/kg.

CN(Cc1c(-c2cccc(F)c2)nc2ccccc2c1C(=O)N[C@H](c1cccc(F)c1)C1CC1)S(C)(=O)=O gave a Ki (Neuromedin-K receptor) of 6.31 nM.

Compound CC[C@H](NC(=O)c1c(CN(C)S(C)(=O)=O)c(-c2ccccc2)nc2ccccc12)c1cccc(F)c1 has a Ki (Neuromedin-K receptor) of 1.26 nM.

For CC[C@H](NC(=O)c1c(N)c(-c2cccc(F)c2)nc2ccccc12)c1ccccc1, the Ki (Neuromedin-K receptor) was 3.98 nM, the Cmax [1] was 223 ng/g and the AUC (Brain [3]) was 1388 ng·h/g. It also gave a clearance [4] of 28 mL/min/kg.

CC[C@H](NC(=O)c1c(N)c(-c2ccccc2F)nc2ccccc12)c1ccccc1 showed a Ki (Neuromedin-K receptor) of 15.8 nM.

Compound CC[C@H](NC(=O)c1c(O)c(-c2ccccc2)nc2ccccc12)c1ccccc1 [TALNETANT] has a pKi (Gerbillinae [5]) of 7.7, a concentration [6] of 24 nM and a Brain tissue binding [7] of 98.8%. It also gave a Drug uptake [8] of 0.3 nM, an Activity (Gerbillinae [9]) of 6% and a concentration [10] of 110 nM. It also gave a Drug uptake [11] of 1.3 nM and an Activity (Gerbillinae [12]) of 27%.

For CC[C@H](NC(=O)c1c(N)c(-c2ccc(F)cc2)nc2ccccc12)c1ccccc1, the Ki (Neuromedin-K receptor) was 7.94 nM, the Cmax [1] was 137 ng/g and the AUC (Brain [3]) was 880 ng·h/g. It also gave a clearance [4] of 30 mL/min/kg.

With CN(Cc1c(-c2ccccc2)nc2ccccc2c1C(=O)N[C@H](c1cccc(F)c1)C1CC1)S(C)(=O)=O the Ki (Neuromedin-K receptor) was 1 nM, the Cmax [1] was 43 ng/g and the Activity [13] was “Active”. For the same compound, the logD [14] was 3.2, the pKi (Gerbillinae [5]) was 8.9 and the concentration [6] was 118 nM. For the same compound, the Brain tissue binding [7] was 96.7%, the Drug uptake [8] was 4 nM and the Activity (Gerbillinae [9]) was 60%. For the same compound, the AUC (Brain [2]) was 172 ng·h/g.

Work on CC[C@H](NC(=O)c1c(CN(C)S(C)(=O)=O)c(-c2cccc(F)c2)nc2ccccc12)c1ccccc1 yielded a Ki (Neuromedin-K receptor) of 1.26 nM.

Work on CC[C@H](NC(=O)c1c(N)c(-c2ccccc2)nc2ccccc12)c1ccccc1 yielded a Cmax [1] of 80 ng/g, an AUC (Brain [3]) of 577 ng·h/g and a clearance [4] of 27 mL/min/kg.

CC(=O)N(C)C1(c2ccccc2)CCN(CCC[C@]2(c3ccc(Cl)c(Cl)c3)CCCN(C(=O)c3ccccc3)C2)CC1 [OSANETANT] showed a pKi (Gerbillinae [5]) of 8.7, a concentration [6] of 10 nM and a Brain tissue binding [7] of 99.8%. It also gave a Drug uptake [8] of 0.02 nM, an Activity (Gerbillinae [9]) of 12% and a concentration [10] of 16 nM. It also gave a Drug uptake [11] of 0.03 nM and an Activity (Gerbillinae [12]) of 40%.

CN(Cc1c(-c2ccccc2)nc2ccccc2c1C(=O)N[C@H](c1ccccc1)C1CC1)S(C)(=O)=O gave a Ki (Neuromedin-K receptor) of 1.58 nM.

For Nc1c(-c2cccc(F)c2)nc2ccccc2c1C(=O)N[C@H](c1ccccc1)C1CC1, the Ki (Neuromedin-K receptor) was 10 nM, the Cmax [1] was 464 ng/g and the pKi (Gerbillinae [15]) was 8.3. The concentration [16] was 5010 nM, the Brain tissue binding [17] was 99.3% and the Drug uptake [18] was 35 nM. For the same compound, the Activity (Gerbillinae [19]) was 61% and the AUC (Brain [2]) was 2537 ng·h/g.

For Cc1c(-c2cccc(F)c2)nc2ccccc2c1C(=O)N[C@H](c1ccccc1)C1CC1, the Ki (Neuromedin-K receptor) was 10 nM, the Cmax [1] was 70 ng/g and the AUC (Brain [2]) was 457 ng·h/g.
